Measured values taken from patent US10898504B2, “Substituted nucleoside analogues for use as PRMT5 inhibitors” (Janssen Pharmaceutica NV, priority 2016, dated 2021).
Several values for one entry are separate records, joined by “and”; a condition that tells them apart may be missing. Equal entries are not always repeated.

What was measured:
[1] = system: A549 cells; experiment: PD assay (Assay 2): inhibition of nuclear symmetric Arginine dimethylation (SYM10 immunohistochemistry) in A549 cells; type: cell-based; settings: individual measurements shown; for IC50: Homo sapiens, A549, PD assay in A549 cells, read-out: pIC50 Assay 2 (converted); for pIC50 Assay 2: PD assay in A549 cells
Protocol: EXPERIMENTAL PROCEDURE PD ASSAY (ASSAY 2)
A549 cells (ATCC, Cat #CCL-185) were cultured in Dulbecco's Modified Eagle's Medium (DMEM) (Sigma, Cat #D5796), supplemented with 10% Fetal Calf Serum (FCS)(HyClone™, Cat #SV30160.03), 100 mM Sodium Pyruvate (Sigma, Cat #S8636), 200 mM L-Glutamine (Sigma, Cat #G7513) and 50 mg/mL Gentamycing (Gibco, Cat #15750-037).
Reagents used for buffers were purchased: Dulbecco's phosphate buffered saline (DPBS) without Ca/Mg (Sigma, Cat #D8537), phosphate buffered saline (PBS) 10× (Roche, Cat #11 666 789 001), Formalin solution 10% (Sigma, HT50-1-128-4L), MeOH 100% (Sigma, Cat #32213-2.5L), Triton X-100 (Acros, Cat #215680010), Bovine Serum Albumin (BSA) (Sigma, Cat #A2153), Alexa fluor 488 goat anti-rabbit antibody (Life Technologies, Cat #A11034), HCS CellMask Deep Red Stain (Life Technologies, Cat #H32721), Hoechst Stain (Life Technologies, Cat #33258), Anti-dimethyl-Arginine, sym (SYM10) antibody (Millipore, 07-412).
Immunohistochemistry Procedure
Cells were plated at 400 cells/40 μL/well in 384 well black plates μclear bottom (Perkin Elmer) and overnight incubated at 37° C., 5% CO2. The IC50 Studies were performed using nine point dosing series ranging from 10 μM to […] for each compound. 80 nL of the respective dilution of the compounds was added using the Labcyte POD 810 (Labcyte) reaching a final DMSO concentration of 0.2% in cell culture. After an incubation period of 48 h at 37° C. and 5% CO2, cells were fixed in 10% formalin solution for 15 min at r.t. and 20 min in ice-cold MeOH, after which they were washed 3× in DPBS. Subsequently, the cells were blocked for 1 h in blocking buffer (PBS+1% BSA and 0.5% Triton X-100) and incubated overnight at 4° C. with the SYM10 antibody diluted 1/2000 in blocking buffer. The cells were washed 3× with washing buffer (PBS+0.1% Triton X-100) and incubated with the Alexa fluor 488 goat anti-rabbit antibody diluted 1/200 in blocking buffer for 1 h at r.t. Subsequently, they were washed 3× with washing buffer and incubated for 30 min at r.t. with PBS containing a 1/5000 dilution of Hoechst Stain and a 1/5000 dilution of the HCS CellMask Deep Red Stain. After a final wash with PBS, the plates were imaged using the 10×W lens of the Opera® system (Perkin Elmer Life Sciences) using following settings (values in nm):
In the above equations, the following variable names are use: […]
In the above equations, the following controls were used for normalization: […]
Low control: minimum level of symmetrically dimethylated Arginines (cells treated with reference compound at 10 μM).
High control: maximum level of symmetrically dimethylated Arginines (DMSO treated cells).
IC50 and pIC50 (−log IC50) values were calculated using the appropriate software.
pIC50 values (Co. No. means compound number; n.d. means not determined).

[2] = molecular target: T1, PRMT5-MEP50 enzyme (Homo sapiens, UniProt O14744); experiment: In vitro assay (Assay 1): PRMT5-MEP50 high throughput mass spectrometer assay, inhibition of SAH formation; type: biochemical; settings: individual measurements shown, read-out: pIC50 Assay 1 (converted)
T1 construct: One virus expresses full length human PRMT5 with Flag-tag at N-terminus
T1 sequence (O14744 whole entry): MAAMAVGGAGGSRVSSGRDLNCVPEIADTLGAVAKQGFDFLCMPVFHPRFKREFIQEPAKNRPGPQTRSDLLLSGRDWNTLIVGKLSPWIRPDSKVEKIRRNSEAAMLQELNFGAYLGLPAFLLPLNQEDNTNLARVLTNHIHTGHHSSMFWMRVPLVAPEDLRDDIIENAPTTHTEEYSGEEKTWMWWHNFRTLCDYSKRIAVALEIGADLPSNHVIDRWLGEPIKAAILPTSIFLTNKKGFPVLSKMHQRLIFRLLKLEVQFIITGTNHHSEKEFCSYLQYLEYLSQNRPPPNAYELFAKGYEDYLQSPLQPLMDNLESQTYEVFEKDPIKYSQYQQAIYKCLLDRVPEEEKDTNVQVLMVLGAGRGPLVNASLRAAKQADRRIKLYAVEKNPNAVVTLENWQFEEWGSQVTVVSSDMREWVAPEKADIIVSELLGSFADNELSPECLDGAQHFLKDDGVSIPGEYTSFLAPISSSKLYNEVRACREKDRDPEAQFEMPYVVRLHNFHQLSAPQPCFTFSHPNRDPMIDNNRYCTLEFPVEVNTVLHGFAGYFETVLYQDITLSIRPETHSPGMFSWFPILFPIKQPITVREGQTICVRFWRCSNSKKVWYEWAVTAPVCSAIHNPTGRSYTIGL
T1 sequence (Q9BQA1 whole entry partner): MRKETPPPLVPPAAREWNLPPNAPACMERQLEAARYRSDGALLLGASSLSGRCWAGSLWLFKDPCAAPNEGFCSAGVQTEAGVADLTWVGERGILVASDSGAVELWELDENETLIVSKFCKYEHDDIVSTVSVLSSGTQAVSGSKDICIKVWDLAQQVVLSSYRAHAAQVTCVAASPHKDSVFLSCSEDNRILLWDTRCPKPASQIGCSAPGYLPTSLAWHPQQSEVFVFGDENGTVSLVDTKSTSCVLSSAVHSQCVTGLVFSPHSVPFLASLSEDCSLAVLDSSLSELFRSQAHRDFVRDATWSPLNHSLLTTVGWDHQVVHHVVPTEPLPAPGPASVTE
Excerpt: EXPERIMENTAL PROCEDURES IN VITRO ASSAY (ASSAY 1)
PRMT5-MEP50 enzyme was purchased from Charles River (Argenta). The enzyme complex was produced in insect cells (Sf9) infected simultaneously with two baculoviruses. One virus expresses full length human PRMT5 with Flag-tag at N-terminus, the second virus expresses full length MEP50 with His6-TEV cleavage at N-terminus. The protein was affinity purified using anti-Flag (M2) beads eluted with 3×FLAG peptide, followed by His-Select eluted with 0.5M imidazole. Eluted protein was then dialysed against tris-buffered saline (TBS) (pH 8.0) containing 20% glycerol and 3 mM dithiothreitol (DTT).
Full-length untagged human recombinant histone H2A (residues 1-130, Genbank Accession #NM_021052, MW=14.1 kDa) expressed in E. coli was purchased from Reaction Biology Corporation, Cat #HMT-11-146. Reagents used for making reaction buffer or stopping reaction were purchased including Tris base (Sigma Cat #T-1503), NaCl (Sigma Cat #RGF-3270), MgCl2 (Sigma Cat #M0250), DTT (Invitrogen Cat #15508-013) and Formic Acid (Riedel deHaen, Cat #33015)
High Throughput Mass Spectrometer Assay
PRMT5 catalyzes the sequential methylations of the terminal nitrogen atoms on the guanidine groups of arginine residues within proteins using co-substrate S-adenosyl-L-methionine (AdoMet, SAM), forming mono-methyl (MMA), symmetric-dimethyl arginine (sDMA) and S-adenosyl-L-homocysteine (AdoHcy, SAH). The enzyme activity was determined by following the product SAH formation using high throughput mass spectrometry (Agilent Rapidfire 300 System coupled to a Sciex 4000 series QTrapm triple-quad MS/MS). The reaction buffer was 20 mM Tris-HC, pH 8.5, 50 mM NaCl, 5 mM MgCl2 and 1 mM DTT. The reaction activity was stopped using 1% formic acid (final concentration).
The IC50 Studies were performed using eleven point dosing series made for each compound by serially diluted 1:2 in dimethyl sulfoxide (DMSO), with point 12 being a DMSO control. Compounds were first spotted to plates, and followed by addition of 2 μM SAM and 0.6 μM H2A (histone H2A) solution mixture. The same volume of enzyme solution was added to initiate the enzymatic reactions. The final concentrations of the reaction are at 1 μM SAM, 0.3 μM H2A and 10 nM enzyme. The reaction was incubated at 30° C. for 60 minutes (min) and then quenched by addition of formic acid to a final concentration of 1%. The inhibitions of SAH formation in the presence of compounds were calculated as a percentage of the control relative to the uninhibited reaction as a function of inhibitor concentration. The data were fit as follows: Y=Bottom+(Top−Bottom)/(1+10^((log IC50−X)*h))
where IC50 is the inhibitor concentration (same unit as X) at 50% inhibition and h is the Hill slope. Y is percent of inhibition, X is log of compound concentration. Bottom and Top are the plateaus in same units as Y.

SMILES: CN1CCC2(CC1)CC(F)(F)CN2C[C@H]1O[C@@H](n2ccc3c(Cl)ncnc32)[C@H](O)[C@@H]1O [Compound 188]
- IC50 [1]: 708 nM
- IC50 [2]: 372 nM

SMILES: Nc1ncnc2c1ccn2[C@@H]1O[C@H](CN2CCCC23CCN(Cc2nccs2)CC3)[C@@H](O)[C@H]1O [Compound 200]
- IC50 [1]: > 10000 nM
- IC50 [2]: 4790 nM

SMILES: CC(C)C(=O)O[C@@H]1[C@H](OC(=O)C(C)C)[C@@H](CN2CCCC23CCN(C)CC3)O[C@H]1c1ccc2c(N)ncnn12 [Compound 104]
- IC50 [1]: 1580 nM
- IC50 [2]: > 10000 nM

SMILES: CN1CCC2(CCCN2CC2C[C@@H](n3ccc4c(N)ncnc43)[C@H](O)[C@@H]2O)CC1 (stereo partly drawn) [Compound 125]
- IC50 [1]: ~871 nM
- IC50 [2]: 148 nM

SMILES: Nc1ncnn2c([C@@H]3O[C@H](CN4CCC[C@H]4CCN4CCOCC4)[C@@H](O)[C@H]3O)ccc12 [Compound 150]
- IC50 [1]: > 10000 nM
- IC50 [2]: > 10000 nM

SMILES: Nc1ncnc2c1ncn2[C@@H]1O[C@H](CN2CCCCC23CNC3)[C@@H](O)[C@H]1O [Compound 80]
- IC50 [1]: > 10000 nM
- IC50 [2]: 3310 nM

SMILES: Nc1ncnc2c([C@@H]3O[C@H](CN4CCCC45CCNCC5)[C@@H](O)[C@H]3O)cnn12 [Compound 68]
- IC50 [1]: ~1950 nM
- IC50 [2]: 229 nM

SMILES: N#CCN1CCC2(CCCN2C[C@H]2O[C@@H](n3ccc4c(N)ncnc43)[C@H](O)[C@@H]2O)CC1 [Compound 192]
- IC50 [1]: 83.2 nM
- IC50 [2]: 69.2 nM

SMILES: Nc1ncnc2c1ncn2[C@@H]1O[C@H](CN2CCC3(CCCN3)C2)[C@@H](O)[C@H]1O (stereo partly drawn) [Compound 78]
- IC50 [1]: > 10000 nM
- IC50 [2]: 2820 nM

SMILES: O[C@@H]1[C@H](O)[C@@H](CN2CCCC23CCNCC3)O[C@H]1n1cnc2c(NC3CC3)ncnc21 [Compound 270]
- IC50 [1]: > 10000 nM
- IC50 [2]: 4680 nM and 4270 nM and 3470 nM

SMILES: NCC[C@@H]1CC(F)(F)CN1C[C@H]1O[C@@H](c2ccc3c(N)ncnn23)[C@H](O)[C@@H]1O [Compound 156]
- IC50 [1]: 1050 nM
- IC50 [2]: 26.3 nM

SMILES: Nc1ncnc2c1ccn2[C@@H]1C[C@H](CN2CC(F)(F)CC23CCNCC3)[C@@H](O)[C@H]1O [Compound 126]
- IC50 [1]: 44.7 nM
- IC50 [2]: 17.4 nM

SMILES: Nc1ncnc2c1ccn2[C@@H]1O[C@H](CN2CCCC2(CN2CCCC2)C(F)(F)F)[C@@H](O)[C@H]1O (stereo partly drawn) [Compound 189]
- IC50 [2]: > 10000 nM

SMILES: Nc1ncnc2c1ccn2[C@@H]1O[C@H](CN2CCOCC23CCNC3)[C@@H](O)[C@H]1O (single isomer, unassigned) [Compound 110]
- IC50 [1]: > 10000 nM
- IC50 [2]: 1230 nM

SMILES: Nc1ncnc2c1ccn2[C@@H]1O[C@H](CN2CCCC(N)C2)[C@@H](O)[C@H]1O (stereo partly drawn) [Compound 53]
- IC50 [1]: 891 nM
- IC50 [2]: 28.8 nM

SMILES: Nc1ncnc2c1ccn2[C@@H]1O[C@H](CN2CC(F)(F)CC23CCNCC3)[C@@H](O)[C@H]1O [Compound 29]
- IC50 [1]: ~60.3 nM
- pIC50 Assay 2 [1]: ~7.35
- IC50 [2]: 10.2 nM and 7.59 nM

SMILES: NCC[C@@H]1CCCN1C[C@H]1O[C@@H](n2cnc3c(N)ncnc32)[C@H](O)[C@@H]1O [Compound 59]
- IC50 [1]: 2400 nM
- IC50 [2]: 44.7 nM

SMILES: Nc1ncnc2c1ccn2[C@@H]1O[C@H](CN2CCCC23CCN(C2CC2)CC3)[C@@H](O)[C@H]1O [Compound 174]
- IC50 [1]: ~2290 nM
- IC50 [2]: 501 nM

SMILES: CN1CCC2(CCCN(C[C@H]3O[C@@H](n4ccc5c(N)ncnc54)[C@H](O)[C@@H]3O)C2)C1 (stereo partly drawn) [Compound 186]
- IC50 [1]: 617 nM
- IC50 [2]: 13.5 nM

SMILES: Nc1ncnc2c1ccn2[C@@H]1O[C@H](CN2CCCC23CCCNC3)[C@@H](O)[C@H]1O (single isomer, unassigned) [Compound 120]
- pIC50 Assay 2 [1]: <5
- IC50 [2]: 2290 nM

SMILES: CN1CCC2(CCCN2C[C@H]2O[C@@H](n3ccc4c(NCCc5ccc(F)cc5)ncnc43)[C@H](O)[C@@H]2O)CC1 [Compound 204]
- IC50 [1]: 1380 nM
- IC50 [2]: 372 nM

SMILES: Nc1ncnc2c1ccn2[C@@H]1O[C@H](CN2CCOC3(CCCNC3)C2)[C@@H](O)[C@H]1O (stereo partly drawn) [Compound 32]
- IC50 [1]: 9120 nM
- IC50 [2]: 4470 nM

SMILES: NCC[C@H]1CCCN1C[C@H]1O[C@@H](n2cnc3c(N)ncnc32)[C@H](O)[C@@H]1O [Compound 58]
- IC50 [1]: ~6920 nM
- IC50 [2]: 724 nM

SMILES: Nc1ncnc2c1ccn2[C@@H]1O[C@H](CN2CCC3(CNCCC3(F)F)C2)[C@@H](O)[C@H]1O (stereo partly drawn) [Compound 38]
- IC50 [1]: 3890 nM
- IC50 [2]: 1620 nM

SMILES: CC(C)CCN1CCC2(CC1)CC(F)(F)CN2C[C@H]1O[C@@H](n2ccc3c(N)ncnc32)[C@H](O)[C@@H]1O [Compound 184]
- IC50 [1]: ~1480 nM
- IC50 [2]: 67.6 nM

SMILES: Nc1ncnc2c1ccn2[C@@H]1O[C@H](CN2CCCC23CCCNCC3)[C@@H](O)[C@H]1O (single isomer, unassigned) [Compound 118]
- pIC50 Assay 2 [1]: 6.29
- IC50 [2]: 35.5 nM

SMILES: C[C@@]1(O)[C@H](O)[C@@H](CN2CCCC23CCNCC3)O[C@H]1n1cnc2c(N)ncnc21 [Compound 27]
- IC50 [1]: > 10000 nM
- IC50 [2]: 1350 nM

SMILES: Nc1ncnc2c1ccn2[C@@H]1O[C@H](CN2CCCC3(CNCCO3)C2)[C@@H](O)[C@H]1O (single isomer, unassigned) [Compound 34]
- pIC50 Assay 2 [1]: <4.7
- IC50 [2]: 3980 nM

SMILES: Nc1ncnc2c1ncn2[C@@H]1O[C@H](CN2CC3(CCN3)C2)[C@@H](O)[C@H]1O [Compound 88]
- IC50 [1]: > 10000 nM
- IC50 [2]: 46800 nM

SMILES: Nc1ncnc2c1ccn2[C@@H]1O[C@H](CN2CC(C(F)(F)F)CC23CCNCC3)[C@@H](O)[C@H]1O (stereo partly drawn) [Compound 41]
- IC50 [1]: > 10000 nM
- IC50 [2]: 5750 nM

SMILES: CN1CCC12CN(C[C@H]1O[C@@H](n3cnc4c(N)ncnc43)[C@H](O)[C@@H]1O)C2 [Compound 17]
- IC50 [2]: > 100000 nM

SMILES: CN1CCC2(C1)CN(C[C@H]1O[C@@H](n3cnc4c(N)ncnc43)[C@H](O)[C@@H]1O)C2 [Compound 6]
- IC50 [2]: > 100000 nM

SMILES: CC(C)C(=O)O[C@@H]1[C@H](OC(=O)C(C)C)[C@@H](CN2CC(F)(F)CC23CCN(C)CC3)O[C@H]1n1ccc2c(N)ncnc21 [Compound 101]
- pIC50 Assay 2 [1]: 7.06 and 7.08
